From patent US20260327263A1, “Anti-Bacterial Peptides” (priority 2023, published 2026)
Converted amounts (≈) assume the structure as drawn. Where a SMILES comes first, the peptide text is derived from it. [ ]: non-standard residue; d: D form. 2Nal = N[C@@H](Cc1ccc2ccccc2c1)C(=O)O; d2Nal = N[C@H](Cc1ccc2ccccc2c1)C(=O)O

Assays:
[1] = tested on: Pseudomonas aeruginosa (PA); test: Combination of peptide with antibiotics against PA; format: cell-based
Text: In view of the results above, the peptide variants as described herein show synergistic anti-bacterial effects when used in combination with antibiotics.
In some examples, the methods described herein further comprises administering an antibiotic agent to the subject.

[2] = tested on: Staphylococcus aureus (SA); test: Broth microdilution anti-bacterial assay (CLSI), Staphylococcus aureus; format: cell-based; conditions: SA; for MIC: overnight, 37° C., ≥99% inhibition; for MBC: ≥99% killing
Description: (§1) To evaluate their anti-bacterial potency, broth microdilution method as per the CLSI guidelines 1 was used. […] The anti-bacterial potency of the tested agents is quantified using minimum inhibitory concentration (MIC) and minimum bactericidal concentration (MBC). […] To obtain the MBC data, 1X, 2X and 4× MIC of the peptide variants were plated to obtain the number of viable colonies compared to the original inoculum.
(§2) Pseudomonas aeruginosa (ATCC 14213, PA), and methicillin resistant Staphylococcus aureus (BAA1717-USA 300, SA) were obtained from The American Type Culture Collection (ATCC).
(§3) Examination of the potency of modified short peptides against PA and SA strains was performed by using the broth microdilution protocol from the Clinical and Laboratory Standards Institute (CLSI) guidelines (CLSI 2012) as described. Briefly, five freshly plated bacteria colonies were grown in cation adjusted MH2 broth (BD Biosciences) in a shaker incubator at 37° C., 220 RPM. Cells were grown to an optical density (OD600) of ~0.2 measured using a Microplate Spectrophotometer (Molecular Devices Spectra Max Plus). 100 μL of microbial culture containing ~5×10^5 CFU/mL of bacteria in the respective broths were introduced into each well containing 100 μL of peptides and incubated overnight at 37° C. Next, to check the bactericidal effects, 100 μL from each well was transferred and spread on sterile MH2 agar plates. The plates were incubated overnight at 37° C. and the number of colonies forming units (CFU) were calculated the following day. Readings of bacteria grown in media without any treatments were normalized to 100% as media control. For the mixed infection study, three freshly plated bacteria colonies each from PA, SA and ST plates were grown together in cation adjusted MH2 broth and proceeded as described above.

[3] = tested on: Pseudomonas aeruginosa (PA); test: Broth microdilution anti-bacterial assay (CLSI), Pseudomonas aeruginosa; format: cell-based, Pseudomonas aeruginosa (ATCC 14213); conditions: PA; for MIC: overnight, 37° C., ≥99% inhibition; for MBC: ≥99% killing
Description: as §1, §2, §3

[4] = with gentamicin and piperacillin

Row | SMILES | MBC in combination with colistin [1] | MIC in combination with colistin [1] | MIC [2] | MBC [2] | MIC [3] | MBC [3] | MBC in combination with gentamicin and piperacillin [1, 4] | MIC in combination with gentamicin and piperacillin [1, 4]
1 | CC(C)C[C@@H](NC(=O)[C@@H](C)NC(=O)[C@@H](CC(C)C)NC(=O)[C@@H](CCCCN)NC(=O)[C@@H](CC(C)C)NC(=O)[C@@H](C)NC(=O)[C@@H](CCCCN)NC(=O)[C@@H](CCCCN)NC(=O)[C@@H](CO)NC(=O)[C@@H](CC(C)C)NC(=O)[C@@H](CCCCN)NC(=O)[C@@H](CC(C)C)NC(=O)[C@@H](Cc1c[nH]c2ccccc12)NC(=O)[C@@H](CCCCN)NC(=O)[C@@H](CCCCN)NC(=O)[C@@H](CC(C)C)NC(=O)[C@@H](CC(C)C)NC(=O)[C@@H](CCCCN)NC(=O)[C@H](N)CCCCN)C(N)=O [E1AM2 D-V8L Q19L C-2-NH2] (H-[dK][dK][dL][dL][dK][dK][dW][dL][dK][dL][dS][dK][dK][dA][dL][dK][dL][dA][dL]-NH2) | reduced minimum bactericidal concentration (MBC) | reduced minimum inhibitory concentration (MIC) | 1.56 µM (≈ 3.51 µg/mL) | 1.56 µM (≈ 3.51 µg/mL) | 1.56 µM (≈ 3.51 µg/mL) | 1.56 µM (≈ 3.51 µg/mL) | – | –
2 | CC(C)C[C@@H](NC(=O)[C@@H](C)NC(=O)[C@@H](CC(C)C)NC(=O)[C@@H](CCCCN)NC(=O)[C@@H](CC(C)C)NC(=O)[C@@H](C)NC(=O)[C@@H](CCCCN)NC(=O)[C@@H](CCCCN)NC(=O)[C@@H](CO)NC(=O)[C@@H](CC(C)C)NC(=O)[C@@H](CCCCN)NC(=O)[C@@H](CC(C)C)NC(=O)[C@@H](Cc1ccc2ccccc2c1)NC(=O)[C@@H](CCCCN)NC(=O)[C@@H](CCCCN)NC(=O)[C@@H](CC(C)C)NC(=O)[C@@H](CC(C)C)NC(=O)[C@@H](CCCCN)NC(=O)[C@H](N)CCCCN)C(N)=O [E1AM2 D-W72Nal V8L Q19L C-2-NH2] (H-[dK][dK][dL][dL][dK][dK][d2Nal][dL][dK][dL][dS][dK][dK][dA][dL][dK][dL][dA][dL]-NH2) | – | – | 1.56 µM (≈ 3.53 µg/mL) | 1.56 µM (≈ 3.53 µg/mL) | 1.56 µM (≈ 3.53 µg/mL) | 1.56 µM (≈ 3.53 µg/mL) | reduced minimum bactericidal concentration (MBC) | reduced minimum inhibitory concentration (MIC)
3 | CC(C)C[C@H](NC(=O)[C@H](C)NC(=O)[C@H](CC(C)C)NC(=O)[C@H](CCCCN)NC(=O)[C@H](CC(C)C)NC(=O)[C@H](C)NC(=O)[C@H](CCCCN)NC(=O)[C@H](CCCCN)NC(=O)[C@H](CO)NC(=O)[C@H](CC(C)C)NC(=O)[C@H](CCCCN)NC(=O)[C@H](CC(C)C)NC(=O)[C@H](Cc1ccc2ccccc2c1)NC(=O)[C@H](CCCCN)NC(=O)[C@H](CCCCN)NC(=O)[C@H](CC(C)C)NC(=O)[C@H](CC(C)C)NC(=O)[C@H](CCCCN)NC(=O)[C@@H](N)CCCCN)C(N)=O [E1AM2 W72Nal V8L Q19L C-2-NH2] (H-KKLLKK[2Nal]LKLSKKALKLAL-NH2) | reduced minimum bactericidal concentration (MBC) | reduced minimum inhibitory concentration (MIC) | 1.56 µM (≈ 3.53 µg/mL) | 1.56 µM (≈ 3.53 µg/mL) | 1.56 µM (≈ 3.53 µg/mL) | 1.56 µM (≈ 3.53 µg/mL) | – | –
